Assay results as given in patent publication US7417156B2, “Orally active, antimalarial, anticancer, artemisinin-derived trioxane dimers” (Johns Hopkins University, priority 2002, dated 2008).

Assays:
BT-549 = assay: NCI 60 cell line panel screen (SRB); type: cell-based, human; details: for Log10LC50 / Log10TGI50: BT-549 (Breast Cancer); for Log10LC50: LC50: PG=−50; for Log10TGI50: TGI: PG=0; for Log10GI50: Breast Cancer, BT-549
HOP-62 = assay: NCI 60 cell line panel screen (SRB); type: cell-based, human; details: for Log10LC50 / Log10TGI50: HOP-62 (Non-Small Cell Lung Cancer); for Log10LC50: LC50: PG=−50; for Log10TGI50: TGI: PG=0; for Log10GI50: Non-Small Cell Lung Cancer, HOP-62
SNB-19 = assay: NCI 60 cell line panel screen (SRB); type: cell-based, human; details: for Log10GI50: CNS Cancer, SNB-19; for Log10LC50 / Log10TGI50: SNB-19 (CNS Cancer); for Log10LC50: LC50: PG=−50; for Log10TGI50: TGI: PG=0
SK-OV-3 = assay: NCI 60 cell line panel screen (SRB); type: cell-based, human; details: for Log10GI50: Ovarian Cancer, SK-OV-3; for Log10LC50 / Log10TGI50: SK-OV-3 (Ovarian Cancer); for Log10LC50: LC50: PG=−50; for Log10TGI50: TGI: PG=0
NCI-H226 = assay: NCI 60 cell line panel screen (SRB); type: cell-based, human; details: for Log10LC50 / Log10TGI50: NCI-H226 (Non-Small Cell Lung Cancer); for Log10LC50: LC50: PG=−50; for Log10TGI50: TGI: PG=0; for Log10GI50: Non-Small Cell Lung Cancer, NCI-H226
[1] = test system: P. berghei NY malaria parasite; assay: Antimalarial efficacies in vivo in mice
From the text: Neither overt toxicity nor behavioral modification was observed due to drug administration in any of these mouse experiments.

DU-145 = assay: NCI 60 cell line panel screen (SRB); type: cell-based, human; details: for Log10TGI50: TGI: PG=0; for Log10GI50: Prostate Cancer, DU-145
UACC-62 = assay: NCI 60 cell line panel screen (SRB); type: cell-based, human; details: for Log10LC50 / Log10TGI50: UACC-62 (Melanoma); for Log10LC50: LC50: PG=−50; for Log10TGI50: TGI: PG=0
HCC-2998 = assay: NCI 60 cell line panel screen (SRB); type: cell-based, human; details: for Log10LC50 / Log10TGI50: HCC-2998 (Colon Cancer); for Log10LC50: LC50: PG=−50; for Log10TGI50: TGI: PG=0
SK-MEL-5 = assay: NCI 60 cell line panel screen (SRB); type: cell-based, human; details: for Log10GI50: Melanoma, SK-MEL-5; for Log10LC50 / Log10TGI50: SK-MEL-5 (Melanoma); for Log10LC50: LC50: PG=−50; for Log10TGI50: TGI: PG=0
SF-295 = assay: NCI 60 cell line panel screen (SRB); type: cell-based, human; details: for Log10GI50: CNS Cancer, SF-295; for Log10LC50 / Log10TGI50: SF-295 (CNS Cancer); for Log10LC50: LC50: PG=−50; for Log10TGI50: TGI: PG=0
A498 = assay: NCI 60 cell line panel screen (SRB); type: cell-based, human; details: for Log10LC50 / Log10TGI50: A498 (Renal Cancer); for Log10LC50: LC50: PG=−50; for Log10TGI50: TGI: PG=0; for Log10GI50: Renal Cancer, A498
SW-620 = assay: NCI 60 cell line panel screen (SRB); type: cell-based, human; details: for Log10GI50: Colon Cancer, SW-620; for Log10LC50 / Log10TGI50: SW-620 (Colon Cancer); for Log10LC50: LC50: PG=−50; for Log10TGI50: TGI: PG=0
OVCAR-4 = assay: NCI 60 cell line panel screen (SRB); type: cell-based, human; details: for Log10LC50 / Log10TGI50: OVCAR-4 (Ovarian Cancer); for Log10LC50: LC50: PG=−50; for Log10TGI50: TGI: PG=0; for Log10GI50: Ovarian Cancer, OVCAR-4
SN12C = assay: NCI 60 cell line panel screen (SRB); type: cell-based, human; details: for Log10GI50: Renal Cancer, SN12C; for Log10LC50 / Log10TGI50: SN12C (Renal Cancer); for Log10LC50: LC50: PG=−50; for Log10TGI50: TGI: PG=0
ACHN = assay: NCI 60 cell line panel screen (SRB); type: cell-based, human; details: for Log10LC50 / Log10TGI50: ACHN (Renal Cancer); for Log10LC50: LC50: PG=−50; for Log10TGI50: TGI: PG=0; for Log10GI50: Renal Cancer, ACHN
LOX IMVI = assay: NCI 60 cell line panel screen (SRB); type: cell-based, human; details: for Log10LC50 / Log10TGI50: LOX IMVI (Melanoma); for Log10LC50: LC50: PG=−50; for Log10TGI50: TGI: PG=0; for Log10GI50: Melanoma, LOX IMVI
male CD-1 mice = assay: Acute toxicity study, single intraperitoneal injection; details: for Mortality: single ip, male CD-1 mice
Method: Each compound was dissolved in DMSO (Mallinkrodt Lot No. V18H15) to achieve a concentration of 200 mg/ml, and then 3 parts sesame oil (Spectrum Lot No. M10656) was added to make a working concentration of 50 mg/ml for dose administration. Stability, strength, and uniformity of the test articles in the dose formulations were not determined for this study.
Forty-two CD1 male mice purchased from Charles River Laboratories (Wilmington, Mass.) were used in the study. Mice were quarantined for 3 days prior to initiation of the study.
Mice were weighed and randomized into treatment groups on the day prior to the first dose administration. Due to limitations in the amount of available test materials, fewer mice in 1000 mg/kg groups were treated than specified in the protocol. The numbers of animals intended to be used and actually used with each compound at each dose level are shown in the table below; the only differences are in the high-dose groups.
Surviving animals were sacrificed on Day 8 and blood was collected for clinical pathology evaluations.
Mortality and morbidity were checked twice daily on weekdays and once daily on the weekend, see Table VI. Animals were weighed daily and prior to necropsy.

malaria parasite = assay: Efficacy Study Blood Schizontocidal Activity; type: in vivo; design: ED90: unit not given here

CC1CCC2C(C)C(CC(O)(CC3OC4OC5(C)CCC6C(C)CCC(C3C)C46OO5)CS(=O)(=O)c3ccc(C(=O)O)cc3)OC3OC4(C)CCC1C32OO4 (stereo not drawn) [Compound 10c, bis-trioxane β-hydroxysulfone benzoic acid]
Log10LC50 (BT-549): −4.61 log10M
Log10TGI50 (BT-549): −5.54 log10M
Log10GI50 (BT-549): −6.67
Log10LC50 (HOP-62): −4.62 log10M
Log10TGI50 (HOP-62): −5.01 log10M
Log10GI50 (HOP-62): <−8.30
Log10GI50 (SNB-19): −6.72
Log10LC50 (SNB-19): −4.44 log10M
Log10TGI50 (SNB-19): −4.96 log10M
Log10GI50 (SK-OV-3): −6.82
Log10LC50 (SK-OV-3): −4.47 log10M
Log10TGI50 (SK-OV-3): −4.92 log10M
Log10LC50 (NCI-H226): −4.82 log10M
Log10TGI50 (NCI-H226): <−8.30 log10M
Log10GI50 (NCI-H226): <−8.30
ED50 ([1]; route IV): 2.7 mg/kg × 4
ED90 ([1]; route IV): 10.0 mg/kg × 4
% Parasite Supression at 10 mg/kg ([1]; route IV): 83.4%
ED50 ([1]; route PO): 7.5 mg/kg × 4
ED90 ([1]; route PO): 35.0 mg/kg × 4
% Parasite Supression at 10 mg/kg ([1]; route PO): 46.1%

CC1CCC2C(C)C(CC(O)(CO)CC3OC4OC5(C)CCC6C(C)CCC(C3C)C46OO5)OC3OC4(C)CCC1C32OO4 (stereo not drawn) [Compound 5, bis-trioxane vicinal diol]
Log10LC50 (BT-549): −4.30 log10M
Log10TGI50 (BT-549): −4.81 log10M
Log10GI50 (BT-549): <−8.00
Log10LC50 (DU-145; DU-145 (Prostate Cancer), LC50: PG=−50): −4.13 log10M
Log10TGI50 (DU-145; DU-145 (Prostate Cancer)): −4.48 log10M
Log10GI50 (DU-145): −4.83
Log10LC50 (UACC-62): −4.24 log10M
Log10TGI50 (UACC-62): −4.67 log10M
Log10LC50 (HOP-62): >−4.00 log10M
Log10TGI50 (HOP-62): −4.26 log10M
Log10GI50 (HOP-62): −4.66
Log10GI50 (SNB-19): −4.82
Log10LC50 (SNB-19): >−4.00 log10M
Log10TGI50 (SNB-19): −4.34 log10M
Log10GI50 (HCC-2998; Colon Cancer, HCC-2998): −4.65
Log10LC50 (HCC-2998): >−4.00 log10M
Log10TGI50 (HCC-2998): −4.23 log10M
Log10GI50 (SK-MEL-5): −7.69
Log10LC50 (SK-MEL-5): −4.21 log10M
Log10TGI50 (SK-MEL-5): −4.64 log10M
Log10GI50 (SK-OV-3): −4.62
Log10LC50 (SK-OV-3): >−4.00 log10M
Log10TGI50 (SK-OV-3): −4.15 log10M
Log10GI50 (SF-295): −4.94
Log10LC50 (SF-295): −4.04 log10M
Log10TGI50 (SF-295): −4.49 log10M
Log10LC50 (A498): −4.21 log10M
Log10TGI50 (A498): −4.51 log10M
Log10GI50 (A498): −4.81
Log10GI50 (SW-620): −4.97
Log10LC50 (SW-620): >−4.00 log10M
Log10TGI50 (SW-620): >−4.00 log10M
Log10LC50 (OVCAR-4): −4.12 log10M
Log10TGI50 (OVCAR-4): −4.55 log10M
Log10GI50 (OVCAR-4): −4.99
Log10LC50 (NCI-H226): −4.11 log10M
Log10TGI50 (NCI-H226): −4.49 log10M
Log10GI50 (NCI-H226): −4.87
Log10GI50 (SN12C): −7.60
Log10LC50 (SN12C): −4.26 log10M
Log10TGI50 (SN12C): −4.72 log10M
Log10LC50 (ACHN): 4.47 log10M
Log10TGI50 (ACHN): <−8.00 log10M
Log10GI50 (ACHN): <−8.00
Log10LC50 (LOX IMVI): −4.44 log10M
Log10TGI50 (LOX IMVI): −5.47 log10M
Log10GI50 (LOX IMVI): <−8.00

CC1CCC2C(C)C(CC(COC(=O)c3cc[n+]([O-])cc3)CC3OC4OC5(C)CCC6C(C)CCC(C3C)C46OO5)OC3OC4(C)CCC1C32OO4 (stereo not drawn) [Compound 13, bis-trioxane primary alcohol isonicotinate N-oxide]
Log10LC50 (BT-549): −4.61 log10M
Log10TGI50 (BT-549): −5.07 log10M
Log10GI50 (BT-549): <−8.30
Log10TGI50 (DU-145; DU-145 (Prostate Cancer)): −5.00 log10M
Log10GI50 (DU-145): −7.48
Log10GI50 (UACC-62; Melanoma, UACC-62): −8.00
Log10LC50 (UACC-62): −4.66 log10M
Log10TGI50 (UACC-62): −5.07 log10M
Log10LC50 (HOP-62): −4.54 log10M
Log10TGI50 (HOP-62): −4.91 log10M
Log10GI50 (SNB-19): −5.08
Log10LC50 (SNB-19): >−4.30 log10M
Log10TGI50 (SNB-19): >−4.30 log10M
Log10LC50 (HCC-2998): −4.55 log10M
Log10TGI50 (HCC-2998): −4.91 log10M
Log10GI50 (SK-MEL-5): <−8.30
Log10LC50 (SK-MEL-5): −4.73 log10M
Log10TGI50 (SK-MEL-5): −5.28 log10M
Log10GI50 (SK-OV-3): −5.13
Log10LC50 (SK-OV-3): −4.31 log10M
Log10TGI50 (SK-OV-3): −4.72 log10M
Mortality (male CD-1 mice; 125 mg/kg): No death
Mortality (male CD-1 mice; 250 mg/kg): No death
Mortality (male CD-1 mice; 500 mg/kg): 3/3 dead
Mortality (male CD-1 mice; 750 mg/kg): 2/3 dead
toxicity relative to sodium artesunate in words (male CD-1 mice; intraperitoneally to mice as a single dose): less toxic
Log10GI50 (SF-295): −5.21
Log10LC50 (SF-295): −4.33 log10M
Log10TGI50 (SF-295): −4.77 log10M
Log10LC50 (A498): −4.74 log10M
Log10TGI50 (A498): −5.31 log10M
Log10GI50 (A498): −6.97
Log10GI50 (SW-620): <−8.30
Log10LC50 (SW-620): −4.53 log10M
Log10TGI50 (SW-620): −5.05 log10M
Log10LC50 (OVCAR-4): −4.42 log10M
Log10TGI50 (OVCAR-4): −4.93 log10M
Log10GI50 (OVCAR-4): <−8.30
Log10GI50 (SN12C): <−8.30
Log10LC50 (SN12C): −4.72 log10M
Log10TGI50 (SN12C): −5.29 log10M
Log10LC50 (ACHN): −4.79 log10M
Log10TGI50 (ACHN): −6.57 log10M
Log10GI50 (ACHN): <−8.30
ED50 (malaria parasite; Route: IV): 0.55 mg/kg
ED90 (malaria parasite; Route: IV): 2.0
ED50 (malaria parasite; Route: PO): 4 mg/kg
ED90 (malaria parasite; Route: PO): 9.0
efficacy relative to sodium artesunate in words (malaria parasite; orally and i.v.): more efficacious
Log10LC50 (LOX IMVI): −5.78 log10M
Log10TGI50 (LOX IMVI): <−8.30 log10M
Log10GI50 (LOX IMVI): <−8.30
